Measured values taken from PMC8646019, “Azvudine is a thymus-homing anti-SARS-CoV-2 drug effective in treating COVID-19 patients” (Signal Transduction and Targeted Therapy, 2021).

System: SARS-CoV-2
Test: SARS-CoV-2 infected rhesus macaques treated with FNC (viral load, blood tests, histology, X-ray)
Assay type: in vivo
Procedure: RM monkeys were used to learn whether FNC could inhibit SARS-CoV-2 in vivo. In this experiment, eight monkeys were first infected with SARS-CoV-2 using the protocol established previously with an infection dose of 10^6 pfu per monkey.[18] Among the eight animals, four were untreated (as vehicle control; two male and two female) and four were treated with FNC (0.07 mg/kg, qd, oral; two male and two female) 12 h post-infection. The treatment continued for 7 days from Day 1 to Day 7. The experiment was terminated on Day 8 after viral infection. Clinical manifestations, blood indications, and viral load in swabs and blood samples was monitored during the course, and organs were examined after euthanasia at 8 dpi. The experimental protocol is shown in Supplementary Fig. 5.
Fig. 3 FNC inhibited SARS-CoV-2 and treated COVID-19 in vivo. Eight RM monkeys were inoculated with SARS-CoV-2, followed by vehicle or FNC treatment 12 h post infection and continued for 7 days (see Materials and methods). […] The regions of interest (ROI) are boxed in white, and their magnified photos are shown below. Scale bars, 500 µm (up) and 20 µm (below). c White blood cells (WBC), neutrophil granulocytes (NG), monocytes (MC), and platelets basically remained stable by FNC after SARS-CoV-2 infection. d FNC increased the percent of lymphocytes, alleviated CRP production, and protected the heart and liver functions. Data are presented as mean ± SEM (n = 4); *p < 0.05, infected monkeys in FNC group vs. infected monkeys in the untreated group, by Mann–Whitney U test. CRP C reaction protein, AST aspartate aminotransferase TEXT PRINTED IN THE PICTURE: (a) FNC: Lung Viral load (copies /g): ND (17031); Lung Viral load (copies /g): ND (17374); Thymus Viral load (copies /g): ND (17017); Thymus Viral load (copies /g): ND (17031); Thymus Viral load (copies /g): ND (17368); Thymus Viral load (copies /g): ND (17374) DOUBTS OF THE COPYIST ABOUT THIS PICTURE: Panel a: the only printed results are "ND" labels over single animal numbers. The red ones (FNC group) are given. The black ND labels of the untreated group (Lung 17032; Thymus 17032, 17041) are left out because no substance was given. / Panel d: 0.083 printed in the CRP and AST plots is taken as a p value and left out.
The rhesus macaques’ experiment was done by following the method described before^1,2. Briefly, healthy rhesus macaques (4 male and 4 female, 3-4 years old) were used for the study. SARS-CoV-2 was from the Center of Diseases Control, Guangdong, China, and amplified in the Vero-E6 cells. Animal groups and experimental schedules were outlined in Fig S4. We inoculated rhesus macaques with 10^6 pfu/ml SARS-CoV-2 intratracheally (0.5ml) and intranasally (0.5ml). FNC (0.07mg/kg, qd, orally) was given 12 h after viral inoculation and continued for 7 days. The animals were monitored daily for physical examination. Chest X-ray radiograph of the anaesthetized monkeys was done with 55-75v and 8-12.5mA with the Mobile digital medical X-ray photography system (MobileCooper, Browiner China).
Quantification of viral genome in swabs and tissue samples was done as described before^1. Viral genome copy in samples were quantified with real time RT-PCR, using TaqMan Fast Virus 1-Step Master Mix (ThermoFisher, US) and conducted on the CFX384 Touch Real-Time PCR Detection System (Biorad, US). Purified RNA of SARS-CoV-2 served as a standard curve. The operation conditions of RT-PCR were set as following: 25℃ for 2min, 50℃ for 15min, 95℃ for 2min, then 40 cycles at 95℃ 5sec and 60℃ 31sec. Primers/probe specific for the NP gene were synthesized based on sequences from China CDC: Target-2-F:GGGGAA […],
By the end of the experiment, major organs of the monkeys were taken and checked with naked eye examination. Tests for blood biochemistry and hematology indexes, including lymphocyte analysis and organ function assays, were done based on previous reports^1,2. […]

[1] = FNC-treated monkeys vs untreated

[N-]=[N+]=N[C@]1(CO)O[C@@H](n2ccc(N)nc2=O)[C@@H](F)[C@@H]1O [FNC, 2′-deoxy-2′-β-fluoro-4′-azidocytidine]
CK and AST levels [1]: decreased CK and AST levels, though insignificantly | body temperature and body weight changes after SARS-CoV-2 infection [1]: not different | lesions in the lung (HE staining) (RM monkeys, FNC 0.07 mg/kg qd oral vs untreated): reduced the lesions substantially | viral load in nasal swabs, blood, lungs and thymus (RM monkeys, FNC 0.07 mg/kg qd oral, 7 days, vs untreated): significantly reduced viral load | ground-glass opacities in chest X-ray (RM monkeys, FNC 0.07 mg/kg, qd, orally): lessened ground-glass opacities | viral load in the thymus (four virus (+) monkeys treated with FNC, termination of the experiment): negative
